Source: patent publication US4863900A (priority 1987, dated 1989)

Assays:
HSV1 [1] = test: Virus inactivation, surviving virus by plaque assay on VERO cells; details: for inactivation of HSV1, temperature effect: 1 hour
HSV1 [2] = test: Injection of poly-L-histidine treated HSV1 into mice, observed 14 days; assay type: in vivo, Balb/C mice; details: HSV1 incubated with 100 μg His-75 in 1 ml, pH 6.0, one hour at 37° C., 50 μl in lower left jaw
Excerpt: 3. All animals were observed daily for 14 days.

HSV2 = test: Virus inactivation, surviving virus by plaque assay on VERO cells; details: for Percent Survivors HSV-2: 1 hr at 37° C.
[3] = system: influenza, Newcastle disease, tobacco mosaic, poliomyelitis, and mumps viruses; details: cited from earlier work
[4] = pH 5, 100 μg/ml, 1 hour at 37° C.
[5] = pH 6, 100 μg/ml, 1 hour at 37° C.
[6] = pH 7, 100 μg/ml, 1 hour at 37° C.
[7] = pH 8, 100 μg/ml, 1 hour at 37° C.
[8] = 100 μg/ml at 37° C., pH 6.0, samples at 1, 15, 30, 45 and 60 minutes

Substance: poly-L-Histidine [His-64]
- inactivation of HSV1 (HSV1 [1]; [4]): inactivated
- inactivation of HSV1 (HSV1 [1]; [5]): inactivated
- inactivation of HSV1 (HSV1 [1]; [6]): Some minor inactivation
- inactivation of HSV1 (HSV1 [1]; [7]): none

Substance: poly-L-Histidine [His-75]
- health of mice injected with poly-L-histidine treated HSV1 (HSV1 [2]; listed as Poly-L-histidine): failed to cause disease
- health of mice injected with poly-L-histidine treated HSV1 (HSV1 [2]; listed as poly-L-histidine): remained healthy throughout the study
- Percent Survivors HSV-2 (HSV2; 1 μg/ml, pH 6.0): 62%
- Percent Survivors HSV-2 (HSV2; 10 μg/ml, pH 6.0): 84%
- length of time required for inactivation of HSV2 (HSV2; [8]): inactivated by as little as one minute of exposure
- inactivation of HSV2, temperature effect (HSV2; 4° C., 22° C. and 37° C., 100 μg/ml, pH 6.0, 1 hour): inactivation was almost complete
- ID50 (amount of drug required to inactivate 50% of the virus) (HSV2; HSV2, pH 6.0, 1 hour at 37° C., linear regression analysis): 41.15 µg/mL
- inactivation of HSV2 (HSV2; [4]): inactivated
- inactivation of HSV2 (HSV2; [5]): inactivated
- inactivation of HSV2 (HSV2; [6]): not
- inactivation of HSV2 (HSV2; [7]): not and Some small amount of inactivation
- Percent Survivors HSV-1 (HSV1 [1]; 1 μg/ml, pH 6.0, 1 hr at 37° C.): 83%
- Percent Survivors HSV-1 (HSV1 [1]; 10 μg/ml, pH 6.0, 1 hr at 37° C.): 64%
- length of time required for inactivation of HSV1 (HSV1 [1]; [8]): inactivated by as little as one minute of exposure
- Percent Survivors HSV-1 (HSV1 [1]; 100 μg/ml, pH 6.0, 30 minutes, 37° C., not shifted): 0%
- Percent Survivors HSV-1 (HSV1 [1]; 100 μg/ml, pH 6.0, 60 minutes, 37° C., not shifted): 0%
- inactivation of HSV1, temperature effect (HSV1 [1]; 4° C., 100 μg/ml, pH 6.0): a small amount of HSV1 survived
- inactivation of HSV1, temperature effect (HSV1 [1]; 22° C. and 37° C., 100 μg/ml, pH 6.0): inactivation was almost complete
- ID50 (amount of drug required to inactivate 50% of the virus) (HSV1 [1]; HSV1, pH 6.0, 1 hour at 37° C., linear regression analysis): 44.38 µg/mL
- inactivation of HSV1 (HSV1 [1]; [4]): efficiently inactivated
- inactivation of HSV1 (HSV1 [1]; [5]): efficiently inactivated
- inactivation of HSV1 (HSV1 [1]; [6]): not
- inactivation of HSV (HSV1 [1]; pH 7.2): does not inactivate
- inactivation of HSV1 (HSV1 [1]; [7]): not

Substance: poly-L-arginine
- inhibitory activity against viruses [3]: inhibitory activity

Substance: poly-L-lysine
- inhibitory activity against viruses [3]: inhibitory activity
